Results as given in patent publication US20220030866A1, “CONJUGATES OF AUXIN ANALOGS” (The State of Israel, Ministry of Agriculture & Rural …, priority 2019, published 2022).
Marks after values point to notes of the source that are not given here.

Experiments:
Assay type in all cases: in vivo
[1] = test system: cuttings from mature Eucalyptus grandis trees; assay: rooting of cuttings from mature Eucalyptus grandis trees; conditions: for appearance of the roots compared with IBA alone: 6000 ppm IBA with 100 μM compound
Procedure, shortened: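 Cuttings (12-15 cm, two upper leaves halved) from branches of 8-year-old net-house plants; bases dipped 1 min in 6000 ppm IBA potassium salt plus 50 μM conjugate, leaves sprayed with 50 μM conjugate in 0.5% Triton X-100. Rooted at 25° C, 90% humidity, peat:vermiculite:polystyrene 1:2:3; rooting scored after 30-60 days.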

[2] = test system: argan (Argania spinosa) cuttings; assay: rooting of argan cuttings; conditions: 100 μM conjugate with 6000 ppm IBA
Procedure, shortened: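 Cuttings in a commercial nursery were treated with 100 μM conjugate plus 6000 ppm IBA. Controls were talc with 8000 ppm IBA and fungicide (T-8), or 6000 ppm IBA alone.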

[3] = test system: Pinus halepensis cuttings; assay: rooting and root development in pine cuttings; conditions: 400 ppm IBA potassium salt + 5 ppm conjugate, 4 hours dip; 12 weeks
Procedure: The effects of exemplary D-amino acid conjugates of 4-CPA (Compounds to and Is) on rooting in Pinus halepensis cuttings were compared with those of 2-DP-glycine methyl ester conjugate (2-DP-Gly). Rooting mature pine cuttings (i.e., cuttings that are taken from trees more than 4 years old) is very difficult.
Apical cuttings were taken from 7-year-old trees, stored for 4 weeks at 4° C., and treated by dipping the cutting bases for 4 hours in the following solution: 400 ppm IBA potassium salt+5 ppm tested conjugate+0.1% Amistar™ fungicide (250 grams/liter azoxystrobin). The cuttings were evaluated after 12 weeks.

[4] = test system: Eucalyptus brachyphylla cuttings; assay: rooting of Eucalyptus brachyphylla cuttings; conditions: for mean root number per cutting, E. brachyphylla: K-IBA alone or with 100 μM compound; for mean root length, E. brachyphylla, relative to IBA alone, in words: K-IBA with 100 μM compound
Procedure: In order to investigate cloning of productive eucalyptus trees from cuttings, branches were excised from mature Eucalyptus x trabutii and Eucalyptus brachyphylla trees the field (in Kfar Pines, Israel)—selected based on their exceptional nectar production and honeybee attraction—placed in a humidified cooler box and brought to a climate-controlled greenhouse within 2 hours. Each cutting, 7 cm long, included three nodes with only two leaves remaining at its apical end. Two-thirds of each blade was excised to minimize evapotranspiration. The cutting bases were submerged for 1 minute in 6 grams/liter indole-3-butyric acid potassium salt (K-IBA), optionally supplemented with Compound 1s or 1t at a concentration of 100 μM. In addition, the leaves were sprayed with 100 μM of each compound in the presence of 0.05% Triton X-100 surfactant. Stock solutions of Compounds 1s and 1t were at a concentration of 100 mM in DMSO. The cuttings were planted in rooting medium containing peat, vermiculite and polystyrene flakes at a ratio of 1:2:3 respectively, on a heated rooting table under 90% humidity. Fungicides were applied to the rooting media on a weekly basis. Rooting percentage, number of roots per cutting and root length were measured after 1 and 2 weeks and after 1 and 2 months.

Arabidopsis seedlings = assay: split petri dish assay, separate shoot or root application in etiolated Arabidopsis seedlings; conditions: 10 μM; for adventitious root formation, exposure of shoots compared to exposure of roots / lateral root formation, shoot application compared with root application: split dish
Description: The observation that AR enhancement in Eucalyptus cuttings was higher when 4-CPA conjugates were applied also to the leaves (as described in Example 3) prompted further investigation into the functions of shoot-derived 4-CPA. To this end, 4-CPA or Compounds 1p and it were applied specifically to roots or shoots of five-day old etiolated Arabidopsis seedlings using a split petri dish (as depicted in FIG. 26) and the effect on root elongation, lateral root (LR) formation and adventitious root (AR) formation was evaluated.
Arabidopsis plants were germinated and grown in the dark for 5 days, then then transferred to petri dishes with a partition in the middle. Each half of these plates contained either medium alone or with 10 μM of 4-CPA or Compound 1p or 1tl. The etiolated seedlings were put on the plates with their collet region on the partition such that either the hypocotyl and cotyledons, or the root or both were in touch with the medium containing the tested compound. Adventitious roots and lateral roots were counted and the length of the primary root was measured after a week.

[5] = IBA with 100 μM compound, submersion and spraying

| Structure (SMILES) | appearance of the roots compared with IBA alone ([1]; submersion and spraying) | rooting percentage in argan compared with IBA alone, in words [2] | Degree of root development Medium (%) [3] | Degree of root development Weak (%) [3] | Degree of root development Well-developed (%) [3] | Rooting rate (%) [3] | mean root number per cutting, E. brachyphylla [4] | mean root length, E. brachyphylla, relative to IBA alone, in words [4] | percentage of adventitious root formation (rooting) ([1]; 6000 ppm IBA and 100 μM conjugate by submersion of base plus spraying of foliage) | number of root tips compared with IBA alone (WinRHIZO) [1, 5] | total root length compared with IBA alone (WinRHIZO) [1, 5] | effect on root growth of application to the shoot compared with application directly to the root (Arabidopsis seedlings; 24 hours on split dish) | adventitious root formation, exposure of shoots compared to exposure of roots (Arabidopsis seedlings) | lateral root formation, shoot application compared with root application (Arabidopsis seedlings) |
| --- | --- | --- | --- | --- | --- | --- | --- | --- | --- | --- | --- | --- | --- | --- |
| COC(=O)[C@@H](Cc1c[nH]c2ccccc12)NC(=O)COc1ccc(Cl)cc1 [Compound 1s, 4-CPA-D-Trp] | appeared more branched | considerably higher rooting percentages | 0% | 6.2% | 81.3* % | 92.9% | about 2 | enhanced mean root length |  |  |  |  |  |  |
| COC(=O)[C@H](Cc1c[nH]c2ccccc12)NC(=O)COc1ccc(Cl)cc1 [Compound 1t, 4-CPA-L-Trp] | appeared more branched | considerably higher rooting percentages |  |  |  |  | about 2 | enhanced mean root length | 51±7% | considerably enhanced the number of root tips | considerably enhanced the total root length | comparable | significantly more adventitious root formation | inhibited lateral root formation more efficiently than application to roots |
| O=C(O)COc1ccc(Cl)cc1 [Compound 4-CPA, 4-chloro-phenoxyacetic acid, reference compound] |  |  |  |  |  |  |  |  |  |  |  |  | significantly more adventitious root formation | inhibited lateral root formation more efficiently than application to roots |
